Where a SMILES comes first, the peptide text is derived from it. The star is where a group is joined. Cbz = O=C(OCc1ccccc1)*
Legend:
Type in all cases: functional, cell-based
[1] = tested on: KP-N-RT-BM-1; assay: SANGER: Inhibition of human KP-N-RT-BM-1 cell growth in a cell viability assay.
[2] = tested on: CP67-MEL; assay: SANGER: Inhibition of human CP67-MEL cell growth in a cell viability assay.
[3] = tested on: SKM-1; assay: SANGER: Inhibition of human SKM-1 cell growth in a cell viability assay.
[4] = tested on: TC-YIK; assay: SANGER: Inhibition of human TC-YIK cell growth in a cell viability assay.
[5] = tested on: CHP-134; assay: SANGER: Inhibition of human CHP-134 cell growth in a cell viability assay.
[6] = tested on: SW 1116; assay: cells; conditions: Homo sapiens;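 note: growth inhibition of SW1116 cells, read out with a cell viability assay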
Description: SANGER: Inhibition of human SW1116 cell growth in a cell viability assay.

[7] = tested on: A549; assay: cells; conditions: Homo sapiens;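 note: growth inhibition of A549 cells, read out with a cell viability assay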
Description: SANGER: Inhibition of human A549 cell growth in a cell viability assay.

[8] = tested on: NCI-H1048; assay: cells; conditions: Homo sapiens;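 note: growth inhibition of human NCI-H1048 cells, read out with a cell viability assay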
Description: SANGER: Inhibition of human NCI-H1048 cell growth in a cell viability assay.

[9] = tested on: NBsusSR; assay: cells; conditions: Homo sapiens;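 note: growth inhibition of the human cell line, read out with a cell viability assay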
Description: SANGER: Inhibition of human NBsusSR cell growth in a cell viability assay.

[10] = tested on: ZR-75-30; assay: cells; conditions: Homo sapiens;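 note: growth inhibition of ZR-75-30 cells, measured with a cell viability readout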
Description: SANGER: Inhibition of human ZR-75-30 cell growth in a cell viability assay.

[11] = tested on: CFPAC-1; assay: cells; conditions: Homo sapiens;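 note: cell viability readout used to gauge suppression of CFPAC-1 cell proliferation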
Description: SANGER: Inhibition of human CFPAC-1 cell growth in a cell viability assay.

[12] = tested on: OC-314; assay: cells; conditions: Homo sapiens
Description: SANGER: Inhibition of human OC-314 cell growth in a cell viability assay.

[13] = tested on: YH-13; assay: cells; conditions: Homo sapiens;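 note: cell viability readout of growth suppression in the human YH-13 cell line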
Description: SANGER: Inhibition of human YH-13 cell growth in a cell viability assay.

[14] = tested on: NCI-H2291; assay: cells; conditions: Homo sapiens
Description: SANGER: Inhibition of human NCI-H2291 cell growth in a cell viability assay.

[15] = tested on: BT-549; assay: cells; conditions: Homo sapiens
Description: SANGER: Inhibition of human BT-549 cell growth in a cell viability assay.

[16] = tested on: NCI-H2029; assay: cells; conditions: Homo sapiens;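 note: Read-out is a viability assay on the cultured cells, and IC50 is the concentration that suppresses cell growth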
Description: SANGER: Inhibition of human NCI-H2029 cell growth in a cell viability assay.

[17] = tested on: SW900; assay: cells; conditions: Homo sapiens;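 note: IC50 is the concentration that inhibits SW900 cell growth, measured by a cell viability assay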
Description: SANGER: Inhibition of human SW900 cell growth in a cell viability assay.

[18] = tested on: LU-135; assay: cells; conditions: Homo sapiens
Description: SANGER: Inhibition of human LU-135 cell growth in a cell viability assay.

[19] = tested on: ECC10; assay: cells; conditions: Homo sapiens;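 note: growth inhibition of ECC10 cells, read out by a cell viability assay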
Description: SANGER: Inhibition of human ECC10 cell growth in a cell viability assay.

[20] = tested on: KNS-62; assay: cells; conditions: Homo sapiens;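 note: inhibition of cell growth, read out with a cell viability assay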
Description: SANGER: Inhibition of human KNS-62 cell growth in a cell viability assay.

[21] = tested on: SK-CO-1; assay: cells; conditions: Homo sapiens;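 note: growth inhibition of SK-CO-1 cells, determined by a viability readout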
Description: SANGER: Inhibition of human SK-CO-1 cell growth in a cell viability assay.

[22] = tested on: MDA-MB-468; assay: cells; conditions: Homo sapiens
Description: SANGER: Inhibition of human MDA-MB-468 cell growth in a cell viability assay.

[23] = tested on: COLO 205; assay: cells; conditions: Homo sapiens
Description: SANGER: Inhibition of human COLO-205 cell growth in a cell viability assay.

[24] = tested on: C-4-II; assay: SANGER: Inhibition of human C-4-II cell growth in a cell viability assay.
[25] = tested on: SNG-M; assay: cells; conditions: Homo sapiens
Description: SANGER: Inhibition of human SNG-M cell growth in a cell viability assay.

[26] = tested on: RT-4; assay: SANGER: Inhibition of human RT4 cell growth in a cell viability assay.
[27] = tested on: NCI-H1618; assay: cells; conditions: Homo sapiens;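 note: growth inhibition of human NCI-H1618 cells, measured by a cell viability assay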
Description: SANGER: Inhibition of human NCI-H1618 cell growth in a cell viability assay.

[28] = tested on: MFE-296; assay: SANGER: Inhibition of human MFE-296 cell growth in a cell viability assay.
[29] = tested on: PLC-PRF-5; assay: cells; conditions: Homo sapiens;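 note: growth inhibition of human PLC-PRF-5 cells, read out with a viability assay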
Description: SANGER: Inhibition of human PLC-PRF-5 cell growth in a cell viability assay.

[30] = tested on: NCI-H838; assay: cells; conditions: Homo sapiens;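 note: growth inhibition of human NCI-H838 cells, read out by a cell viability assay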
Description: SANGER: Inhibition of human NCI-H838 cell growth in a cell viability assay.

[31] = tested on: NCI-H2227; assay: cells; conditions: Homo sapiens;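 note: growth inhibition of the human cell line, read out with a cell viability assay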
Description: SANGER: Inhibition of human NCI-H2227 cell growth in a cell viability assay.

[32] = tested on: Calu-1; assay: SANGER: Inhibition of human Calu-1 cell growth in a cell viability assay.
[33] = tested on: HCC1143; assay: cells; conditions: Homo sapiens;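 note: growth inhibition of human HCC1143 cells, read out with a cell viability assay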
Description: SANGER: Inhibition of human HCC1143 cell growth in a cell viability assay.

[34] = tested on: Caov-3 cell line; assay: cells; conditions: Homo sapiens;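 note: cell growth inhibition read out by a viability assay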
Description: SANGER: Inhibition of human Caov-3 cell growth in a cell viability assay.

[35] = tested on: ECC12; assay: cells; conditions: Homo sapiens
Description: SANGER: Inhibition of human ECC12 cell growth in a cell viability assay.

[36] = tested on: NCI-H2107; assay: SANGER: Inhibition of human NCI-H2107 cell growth in a cell viability assay.

| SMILES | IC50 [5] [µM] | IC50 [6] [µM] | IC50 [7] [µM] | IC50 [8] [µM] | IC50 [9] [µM] | IC50 [10] [µM] | IC50 [11] [µM] | IC50 [12] [µM] | IC50 [13] [µM] | IC50 [14] [µM] | IC50 [15] [µM] | IC50 [16] [µM] | IC50 [17] [µM] | IC50 [18] [µM] | IC50 [19] [µM] | IC50 [20] [µM] | also measured |
| --- | --- | --- | --- | --- | --- | --- | --- | --- | --- | --- | --- | --- | --- | --- | --- | --- | --- |
| C[C@@H](Oc1cc(-c2cnn(C3CCNCC3)c2)cnc1N)c1c(Cl)ccc(F)c1Cl [CRIZOTINIB] |  |  |  |  |  |  |  |  |  |  |  |  |  |  |  |  | IC50 [1]: > 2 µM; IC50 [2]: > 2 µM; IC50 ([3]; Homo sapiens, SKM-1): > 2 µM; IC50 [4]: > 2 µM |
| Cc1ccc(-n2nc(C(C)(C)C)cc2NC(=O)Nc2ccc(OCCN3CCOCC3)c3ccccc23)cc1 [DORAMAPIMOD] | > 10 | > 10 | > 10 | > 10 | > 10 | > 10 | > 10 | > 10 | > 10 | > 10 | > 10 | > 10 | > 10 | > 10 | > 10 | > 10 |  |
| CCCCCCCCCCCC1=C(O)C(=O)C=C(O)C1=O [EMBELIN] |  |  |  |  |  |  |  |  |  |  |  |  |  |  |  |  | IC50 [21]: 13.6 µM; IC50 [22]: > 32 µM; IC50 [23]: 3.87 µM; IC50 [24]: > 32 µM; IC50 [25]: 7.05 µM; IC50 [26]: > 32 µM; IC50 [27]: > 32 µM; IC50 [28]: 14.4 µM; IC50 [29]: 6.93 µM; IC50 [30]: > 32 µM; IC50 [31]: > 32 µM; IC50 [32]: 17.1 µM; IC50 [33]: 7.14 µM; IC50 [34]: > 32 µM |
| CC(C)C[C@@H](C=O)NC(=O)[C@H](CC(C)C)NC(=O)[C@H](CC(C)C)NC(=O)OCc1ccccc1 [MG-132] (Cbz-Leu-Leu-Leu-aldehyde) |  |  |  |  |  |  |  |  |  |  |  |  |  |  |  |  | IC50 [1]: > 1 µM; IC50 [2]: 0.267 µM; IC50 [35]: > 1 µM; IC50 ([3]; skm-1): > 1 µM; IC50 [4]: > 1 µM; IC50 [31]: > 1 µM; IC50 [36]: > 1 µM |
| CO[C@@H]1[C@H](N(C)C(=O)c2ccccc2)C[C@H]2O[C@]1(C)n1c3ccccc3c3c4c(c5c6ccccc6n2c5c31)C(=O)NC4 [MIDOSTAURIN] |  |  |  |  |  |  |  |  |  |  |  |  |  |  |  |  | IC50 [24]: 0.349 µM; IC50 [26]: > 0.512 µM; IC50 [28]: > 0.512 µM; IC50 [32]: > 0.512 µM |
| NC1(c2ccc(-c3nc4ccn5c(=O)[nH]nc5c4cc3-c3ccccc3)cc2)CCC1 [MK-2206] | > 4 | > 4 | > 4 | 2.97 | > 4 | > 4 | > 4 | 2.15 | 2.46 | > 4 | > 4 | > 4 |  | > 4 | 3.94 | 3.63 |  |
| CC1(C)CCC(c2ccc(Cl)cc2)=C(CN2CCN(c3ccc(C(=O)NS(=O)(=O)c4ccc(N[C@H](CCN5CCOCC5)CSc5ccccc5)c(S(=O)(=O)C(F)(F)F)c4)cc3)CC2)C1 [NAVITOCLAX] | 0.163 | > 2 | > 2 | 0.51 | > 2 | > 2 | > 2 | > 2 | > 2 | > 2 | > 2 | > 2 | > 2 | 0.186 | 0.0379 | > 2 |  |
| C/C(=C\c1csc(C)n1)[C@@H]1C[C@@H]2O[C@]2(C)CCC[C@H](C)[C@H](O)[C@@H](C)C(=O)C(C)(C)[C@@H](O)CC(=O)O1 [PATUPILONE] |  |  |  |  |  |  |  |  |  |  |  |  |  |  |  |  | IC50 [21]: 0.00913 µM; IC50 [22]: 0.00175 µM; IC50 [23]: 0.000802 µM; IC50 [24]: 0.00537 µM; IC50 [25]: 0.000571 µM; IC50 [26]: > 0.032 µM; IC50 [27]: 0.00762 µM; IC50 [28]: 0.00268 µM; IC50 [29]: > 0.032 µM; IC50 [30]: 0.0118 µM; IC50 [31]: > 0.032 µM; IC50 [32]: 0.0106 µM; IC50 [33]: > 0.032 µM; IC50 [34]: 0.0139 µM |
| CS(=O)(=O)N1CCN(Cc2cc3nc(-c4cccc5[nH]ncc45)nc(N4CCOCC4)c3s2)CC1 [PICTILISIB] | > 4 | > 4 | 1.4 | 2.11 | 0.489 | > 4 | > 4 | > 4 | 0.304 | > 4 | > 4 | > 4 | > 4 | > 4 |  | 3.92 |  |
| CN(C)CCOc1ccc(-c2nc(-c3ccncc3)c(-c3ccc4c(c3)CC/C4=N\O)[nH]2)cc1 [SB590885] | > 5 | > 5 | > 5 | > 5 | > 5 | > 5 | > 5 | > 5 | > 5 | > 5 | > 5 | > 5 | > 5 | > 5 | > 5 | > 5 |  |
| COc1cc(N2CCC(N3CCN(C)CC3)CC2)ccc1Nc1ncc(Cl)c(Nc2ccccc2S(=O)(=O)C(C)C)n1 [TAE-684] |  |  |  |  |  |  |  |  |  |  |  |  |  |  |  |  | IC50 [1]: 0.331 µM; IC50 [2]: > 2 µM; IC50 ([3]; Homo sapiens, SKM-1): > 2 µM; IC50 [4]: > 2 µM |

From ChEMBL document CHEMBL1201861, “Genomics of Drug Sensitity in Cancer screening data, Wellcome Trust Sanger Institute”
